Key:
Assay in all cases: Ambit kinase profiling, competition binding
ABL1 = molecular target: T1, ABL1 (Homo sapiens, UniProt P00519); conditions: compound concentration 10 uM, read-out: Percent Competition
T1 construct: purchased Ambit Biosciences (KINOMEscan)
Text: (§1) Supplement pone.0044653.s004.xls, sheet "Compound 122" | column: Percent Competition

ABL1(F317I) = molecular target: T2, ABL1(F317I) (Homo sapiens, UniProt P00519, F317I); conditions: compound concentration 10 uM, read-out: Percent Competition
T2 construct: purchased Ambit Biosciences (KINOMEscan)
Text: as §1

ABL1(T315I) = molecular target: T3, ABL1(T315I) (Homo sapiens, UniProt P00519, T315I); conditions: compound concentration 10 uM, read-out: Percent Competition
T3 construct: purchased Ambit Biosciences (KINOMEscan)
Text: as §1

ALK = molecular target: T4, ALK (Homo sapiens, UniProt Q9UM73); conditions: compound concentration 10 uM, read-out: Percent Competition
T4 construct: purchased Ambit Biosciences (KINOMEscan)
Text: as §1

ARK5 = molecular target: T5, ARK5 (Homo sapiens, UniProt O60285); conditions: compound concentration 10 uM
T5 construct: purchased Ambit Biosciences (KINOMEscan)
T5 sequence (O60285 whole entry): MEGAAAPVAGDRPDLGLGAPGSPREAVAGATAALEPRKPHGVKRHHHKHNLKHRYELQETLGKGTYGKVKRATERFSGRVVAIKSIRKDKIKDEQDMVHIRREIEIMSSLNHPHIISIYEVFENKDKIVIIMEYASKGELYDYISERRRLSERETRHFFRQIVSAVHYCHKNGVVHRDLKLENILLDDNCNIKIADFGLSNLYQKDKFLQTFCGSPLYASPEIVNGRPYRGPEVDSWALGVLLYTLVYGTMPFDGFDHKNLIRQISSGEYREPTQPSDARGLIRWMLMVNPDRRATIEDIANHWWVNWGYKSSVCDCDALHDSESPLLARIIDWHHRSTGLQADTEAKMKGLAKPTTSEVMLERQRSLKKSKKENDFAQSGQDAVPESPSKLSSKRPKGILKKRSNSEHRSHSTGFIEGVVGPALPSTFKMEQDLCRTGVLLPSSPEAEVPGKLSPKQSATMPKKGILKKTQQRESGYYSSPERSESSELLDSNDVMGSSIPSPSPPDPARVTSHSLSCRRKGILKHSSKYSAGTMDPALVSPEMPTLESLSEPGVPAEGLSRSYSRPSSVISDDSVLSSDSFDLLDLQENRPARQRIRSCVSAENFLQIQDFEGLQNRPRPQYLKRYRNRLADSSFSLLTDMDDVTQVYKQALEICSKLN
Text: as §1

AURKB = molecular target: T6, AURKB (Homo sapiens, UniProt Q96GD4); conditions: compound concentration 10 uM, read-out: Percent Competition
T6 construct: purchased Ambit Biosciences (KINOMEscan)
T6 sequence (Q96GD4 whole entry): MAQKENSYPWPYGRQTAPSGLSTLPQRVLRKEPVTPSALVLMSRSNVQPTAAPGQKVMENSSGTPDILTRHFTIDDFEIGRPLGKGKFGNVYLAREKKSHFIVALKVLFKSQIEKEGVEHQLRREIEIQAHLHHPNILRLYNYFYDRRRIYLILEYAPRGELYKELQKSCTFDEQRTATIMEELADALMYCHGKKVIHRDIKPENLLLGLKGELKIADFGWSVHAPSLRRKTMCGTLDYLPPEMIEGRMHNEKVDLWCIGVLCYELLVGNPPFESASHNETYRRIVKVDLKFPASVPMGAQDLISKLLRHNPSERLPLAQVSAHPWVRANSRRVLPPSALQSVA
Text: as §1

BMPR2 = molecular target: T7, BMPR2 (Homo sapiens, UniProt Q13873); conditions: compound concentration 10 uM
T7 construct: purchased Ambit Biosciences (KINOMEscan)
T7 sequence (Q13873 27-1038): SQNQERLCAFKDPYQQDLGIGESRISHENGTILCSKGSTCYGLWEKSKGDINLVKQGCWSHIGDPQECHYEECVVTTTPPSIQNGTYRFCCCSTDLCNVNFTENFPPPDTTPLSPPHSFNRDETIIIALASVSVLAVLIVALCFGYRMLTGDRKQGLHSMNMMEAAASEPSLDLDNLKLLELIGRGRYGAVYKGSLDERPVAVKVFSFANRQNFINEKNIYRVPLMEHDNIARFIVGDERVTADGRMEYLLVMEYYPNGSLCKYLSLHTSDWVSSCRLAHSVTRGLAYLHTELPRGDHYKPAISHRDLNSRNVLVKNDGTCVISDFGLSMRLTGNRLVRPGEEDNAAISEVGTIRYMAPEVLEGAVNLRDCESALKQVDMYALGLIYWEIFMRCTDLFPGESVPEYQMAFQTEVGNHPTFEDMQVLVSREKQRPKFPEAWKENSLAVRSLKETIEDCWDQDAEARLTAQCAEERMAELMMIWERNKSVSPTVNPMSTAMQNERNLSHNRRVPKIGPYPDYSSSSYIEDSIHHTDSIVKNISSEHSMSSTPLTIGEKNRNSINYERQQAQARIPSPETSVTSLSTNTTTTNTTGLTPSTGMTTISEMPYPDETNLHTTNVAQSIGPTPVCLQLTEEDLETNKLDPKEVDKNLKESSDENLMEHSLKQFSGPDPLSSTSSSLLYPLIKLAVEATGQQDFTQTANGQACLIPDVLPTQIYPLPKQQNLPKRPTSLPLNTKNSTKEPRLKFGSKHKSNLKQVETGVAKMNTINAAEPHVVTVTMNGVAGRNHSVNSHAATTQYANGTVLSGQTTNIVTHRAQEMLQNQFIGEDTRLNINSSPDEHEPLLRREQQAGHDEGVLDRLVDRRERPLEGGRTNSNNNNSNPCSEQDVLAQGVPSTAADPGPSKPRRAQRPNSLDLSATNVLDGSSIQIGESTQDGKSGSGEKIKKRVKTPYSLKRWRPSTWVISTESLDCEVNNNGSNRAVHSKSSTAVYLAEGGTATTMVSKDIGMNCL
Text: as §1

BRSK1 = molecular target: T8, BRSK1 (Homo sapiens, UniProt Q8TDC3); conditions: compound concentration 10 uM, read-out: Percent Competition
T8 construct: purchased Ambit Biosciences (KINOMEscan)
Text: as §1

CAMKK1 = molecular target: T9, CAMKK1 (Homo sapiens, UniProt Q8N5S9); conditions: compound concentration 10 uM, read-out: Percent Competition
T9 construct: purchased Ambit Biosciences (KINOMEscan)
Text: as §1

CDKL2 = molecular target: T10, CDKL2 (Homo sapiens, UniProt Q92772); conditions: compound concentration 10 uM, read-out: Percent Competition
T10 construct: purchased Ambit Biosciences (KINOMEscan)
Text: as §1

DCAMKL2 = molecular target: T11, DCAMKL2 (Homo sapiens, UniProt Q8N568); conditions: compound concentration 10 uM, read-out: Percent Competition
T11 construct: purchased Ambit Biosciences (KINOMEscan)
Text: as §1

DCAMKL3 = molecular target: T12, DCAMKL3 (Homo sapiens, UniProt Q9C098); conditions: compound concentration 10 uM, read-out: Percent Competition
T12 construct: purchased Ambit Biosciences (KINOMEscan)
T12 sequence (Q9C098 whole entry): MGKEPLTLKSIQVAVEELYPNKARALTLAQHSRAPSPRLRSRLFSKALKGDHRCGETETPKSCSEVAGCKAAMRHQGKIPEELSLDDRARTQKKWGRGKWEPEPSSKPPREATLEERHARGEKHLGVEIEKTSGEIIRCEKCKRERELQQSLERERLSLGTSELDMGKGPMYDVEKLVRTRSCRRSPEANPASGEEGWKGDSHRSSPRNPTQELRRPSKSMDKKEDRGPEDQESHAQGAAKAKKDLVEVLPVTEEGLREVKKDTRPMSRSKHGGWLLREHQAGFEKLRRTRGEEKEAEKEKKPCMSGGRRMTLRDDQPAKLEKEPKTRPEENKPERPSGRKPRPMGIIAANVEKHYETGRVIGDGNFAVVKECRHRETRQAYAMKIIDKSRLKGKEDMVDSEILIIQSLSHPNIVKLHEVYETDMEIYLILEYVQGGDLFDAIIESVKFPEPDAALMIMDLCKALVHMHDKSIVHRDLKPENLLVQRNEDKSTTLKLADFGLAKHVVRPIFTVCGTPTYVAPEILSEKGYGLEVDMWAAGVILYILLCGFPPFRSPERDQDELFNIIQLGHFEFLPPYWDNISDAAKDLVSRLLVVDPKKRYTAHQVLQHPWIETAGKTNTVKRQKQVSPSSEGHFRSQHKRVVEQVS
Text: as §1

EPHA2 = molecular target: T13, EPHA2 (Homo sapiens, UniProt P29317); conditions: compound concentration 10 uM, read-out: Percent Competition
T13 construct: purchased Ambit Biosciences (KINOMEscan)
Text: as §1

FLT3 = molecular target: T14, FLT3 (Homo sapiens, UniProt P36888); conditions: compound concentration 10 uM, read-out: Percent Competition
T14 construct: purchased Ambit Biosciences (KINOMEscan)
Text: as §1

MAP4K2 = molecular target: T15, MAP4K2 (Homo sapiens, UniProt Q12851); conditions: compound concentration 10 uM, read-out: Percent Competition
T15 construct: purchased Ambit Biosciences (KINOMEscan)
Text: as §1

MAP4K5 = molecular target: T16, MAP4K5 (Homo sapiens, UniProt Q9Y4K4); conditions: compound concentration 10 uM, read-out: Percent Competition
T16 construct: purchased Ambit Biosciences (KINOMEscan)
T16 sequence (Q9Y4K4 whole entry): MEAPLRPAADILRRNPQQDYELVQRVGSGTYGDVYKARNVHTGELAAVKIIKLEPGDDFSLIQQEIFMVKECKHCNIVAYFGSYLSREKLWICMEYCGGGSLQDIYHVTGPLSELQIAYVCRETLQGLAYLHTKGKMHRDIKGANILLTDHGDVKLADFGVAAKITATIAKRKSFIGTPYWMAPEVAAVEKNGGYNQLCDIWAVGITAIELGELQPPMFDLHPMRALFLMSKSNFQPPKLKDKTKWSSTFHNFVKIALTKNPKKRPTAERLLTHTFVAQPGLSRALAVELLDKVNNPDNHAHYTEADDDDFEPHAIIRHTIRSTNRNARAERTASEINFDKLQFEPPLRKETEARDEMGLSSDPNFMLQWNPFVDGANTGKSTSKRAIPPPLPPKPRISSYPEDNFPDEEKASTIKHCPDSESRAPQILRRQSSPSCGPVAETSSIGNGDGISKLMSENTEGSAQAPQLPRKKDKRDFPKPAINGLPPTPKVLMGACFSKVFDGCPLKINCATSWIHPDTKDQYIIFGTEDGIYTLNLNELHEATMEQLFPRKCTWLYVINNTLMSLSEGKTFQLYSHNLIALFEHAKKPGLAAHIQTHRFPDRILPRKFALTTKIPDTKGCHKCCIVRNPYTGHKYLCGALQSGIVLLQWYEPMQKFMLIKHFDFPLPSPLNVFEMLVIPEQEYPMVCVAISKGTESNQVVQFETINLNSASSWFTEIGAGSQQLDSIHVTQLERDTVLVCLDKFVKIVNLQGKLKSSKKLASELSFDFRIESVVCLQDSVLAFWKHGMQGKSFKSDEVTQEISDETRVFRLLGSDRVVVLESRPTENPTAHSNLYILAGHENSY
Text: as §1

MAPKAPK2 = molecular target: T17, MAPKAPK2 (Homo sapiens, UniProt P49137); conditions: compound concentration 10 uM, read-out: Percent Competition
T17 construct: purchased Ambit Biosciences (KINOMEscan)
Text: as §1

MAPKAPK5 = molecular target: T18, MAPKAPK5 (Homo sapiens, UniProt Q8IW41); conditions: compound concentration 10 uM, read-out: Percent Competition
T18 construct: purchased Ambit Biosciences (KINOMEscan)
Text: as §1

MEK2 = molecular target: T19, MEK2 (Homo sapiens, UniProt P36507); conditions: compound concentration 10 uM, read-out: Percent Competition
T19 construct: purchased Ambit Biosciences (KINOMEscan)
Text: as §1

MELK = molecular target: T20, MELK (Homo sapiens, UniProt Q14680); conditions: compound concentration 10 uM, read-out: Percent Competition
T20 construct: purchased Ambit Biosciences (KINOMEscan)
Text: as §1

MKNK1 = molecular target: T21, MKNK1 (Homo sapiens, UniProt Q9BUB5); conditions: compound concentration 10 uM, read-out: Percent Competition
T21 construct: purchased Ambit Biosciences (KINOMEscan)
Text: as §1

MYLK = molecular target: T22, MYLK (Homo sapiens, UniProt Q15746); conditions: compound concentration 10 uM, read-out: Percent Competition
T22 construct: purchased Ambit Biosciences (KINOMEscan)
Text: as §1

MYLK2 = molecular target: T23, MYLK2 (Homo sapiens, UniProt Q9H1R3); conditions: compound concentration 10 uM, read-out: Percent Competition
T23 construct: purchased Ambit Biosciences (KINOMEscan)
Text: as §1

NEK1 = molecular target: T24, NEK1 (Homo sapiens, UniProt Q96PY6); conditions: compound concentration 10 uM, read-out: Percent Competition
T24 construct: purchased Ambit Biosciences (KINOMEscan)
Text: as §1

NEK2 = molecular target: T25, NEK2 (Homo sapiens, UniProt P51955); conditions: compound concentration 10 uM, read-out: Percent Competition
T25 construct: purchased Ambit Biosciences (KINOMEscan)
Text: as §1

NEK6 = molecular target: T26, NEK6 (Homo sapiens, UniProt Q9HC98); conditions: compound concentration 10 uM, read-out: Percent Competition
T26 construct: purchased Ambit Biosciences (KINOMEscan)
Text: as §1

PAK3 = molecular target: T27, PAK3 (Homo sapiens, UniProt O75914); conditions: compound concentration 10 uM, read-out: Percent Competition
T27 construct: purchased Ambit Biosciences (KINOMEscan)
Text: as §1

PDPK1 = molecular target: T28, PDPK1 (Homo sapiens, UniProt O15530); conditions: compound concentration 10 uM, read-out: Percent Competition
T28 construct: purchased Ambit Biosciences (KINOMEscan)
Text: as §1

PFTAIRE2 = molecular target: T29, PFTAIRE2 (Homo sapiens, UniProt Q96Q40); conditions: compound concentration 10 uM, read-out: Percent Competition
T29 construct: purchased Ambit Biosciences (KINOMEscan)
Text: as §1

PFTK1 = molecular target: T30, PFTK1 (Homo sapiens, UniProt O94921); conditions: compound concentration 10 uM
T30 construct: purchased Ambit Biosciences (KINOMEscan)
Text: as §1

PIK3C2B = molecular target: T31, PIK3C2B (Homo sapiens, UniProt O00750); conditions: compound concentration 10 uM, read-out: Percent Competition
T31 construct: purchased Ambit Biosciences (KINOMEscan)
Text: as §1

PIM3 = molecular target: T32, PIM3 (Homo sapiens, UniProt Q86V86); conditions: compound concentration 10 uM, read-out: Percent Competition
T32 construct: purchased Ambit Biosciences (KINOMEscan)
Text: as §1

PLK3 = molecular target: T33, PLK3 (Homo sapiens, UniProt Q9H4B4); conditions: compound concentration 10 uM, read-out: Percent Competition
T33 construct: purchased Ambit Biosciences (KINOMEscan)
Text: as §1

PRKR = molecular target: T34, PRKR (Homo sapiens, UniProt P19525); conditions: compound concentration 10 uM
T34 construct: purchased Ambit Biosciences (KINOMEscan)
T34 sequence (P19525 whole entry): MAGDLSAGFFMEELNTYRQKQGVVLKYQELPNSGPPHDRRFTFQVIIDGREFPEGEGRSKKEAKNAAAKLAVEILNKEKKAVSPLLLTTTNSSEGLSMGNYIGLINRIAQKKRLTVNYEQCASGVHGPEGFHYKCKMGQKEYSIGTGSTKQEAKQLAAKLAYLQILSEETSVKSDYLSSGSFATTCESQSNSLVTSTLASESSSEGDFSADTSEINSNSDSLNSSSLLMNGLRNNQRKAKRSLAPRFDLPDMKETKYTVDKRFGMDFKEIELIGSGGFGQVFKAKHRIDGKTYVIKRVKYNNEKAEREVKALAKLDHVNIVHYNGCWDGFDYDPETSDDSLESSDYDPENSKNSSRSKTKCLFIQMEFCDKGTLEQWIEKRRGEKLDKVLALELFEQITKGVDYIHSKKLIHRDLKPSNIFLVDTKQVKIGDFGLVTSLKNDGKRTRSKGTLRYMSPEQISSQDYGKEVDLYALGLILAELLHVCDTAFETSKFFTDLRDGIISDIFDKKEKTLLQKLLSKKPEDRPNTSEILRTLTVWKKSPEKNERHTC
Text: as §1

RIOK1 = molecular target: T35, RIOK1 (Homo sapiens, UniProt Q9BRS2); conditions: compound concentration 10 uM, read-out: Percent Competition
T35 construct: purchased Ambit Biosciences (KINOMEscan)
Text: as §1

RIOK3 = molecular target: T36, RIOK3 (Homo sapiens, UniProt O14730); conditions: compound concentration 10 uM, read-out: Percent Competition
T36 construct: purchased Ambit Biosciences (KINOMEscan)
T36 sequence (O14730 whole entry): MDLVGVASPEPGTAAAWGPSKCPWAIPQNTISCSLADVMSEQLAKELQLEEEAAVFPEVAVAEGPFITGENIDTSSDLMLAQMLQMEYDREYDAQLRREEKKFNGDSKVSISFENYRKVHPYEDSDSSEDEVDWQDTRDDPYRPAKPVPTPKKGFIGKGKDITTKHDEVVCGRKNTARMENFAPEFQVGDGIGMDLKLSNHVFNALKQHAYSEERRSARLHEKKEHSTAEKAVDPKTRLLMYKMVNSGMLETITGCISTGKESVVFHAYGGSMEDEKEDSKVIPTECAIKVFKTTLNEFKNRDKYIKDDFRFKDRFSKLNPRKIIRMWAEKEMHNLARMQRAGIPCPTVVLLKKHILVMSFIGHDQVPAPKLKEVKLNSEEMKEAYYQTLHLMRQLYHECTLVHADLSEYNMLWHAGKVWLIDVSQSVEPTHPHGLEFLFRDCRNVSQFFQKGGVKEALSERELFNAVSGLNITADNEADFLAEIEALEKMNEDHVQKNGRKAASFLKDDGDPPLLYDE
Text: as §1

[1] = molecular target: T37, RPS6KA4(Kin.Dom.2-C-terminal) (Homo sapiens, UniProt O75676); conditions: compound concentration 10 uM, read-out: Percent Competition
T37 construct: RPS6KA4(Kin.Dom.2-C-terminal); purchased Ambit Biosciences (KINOMEscan)
T37 sequence (O75676 372-772 limits assumed): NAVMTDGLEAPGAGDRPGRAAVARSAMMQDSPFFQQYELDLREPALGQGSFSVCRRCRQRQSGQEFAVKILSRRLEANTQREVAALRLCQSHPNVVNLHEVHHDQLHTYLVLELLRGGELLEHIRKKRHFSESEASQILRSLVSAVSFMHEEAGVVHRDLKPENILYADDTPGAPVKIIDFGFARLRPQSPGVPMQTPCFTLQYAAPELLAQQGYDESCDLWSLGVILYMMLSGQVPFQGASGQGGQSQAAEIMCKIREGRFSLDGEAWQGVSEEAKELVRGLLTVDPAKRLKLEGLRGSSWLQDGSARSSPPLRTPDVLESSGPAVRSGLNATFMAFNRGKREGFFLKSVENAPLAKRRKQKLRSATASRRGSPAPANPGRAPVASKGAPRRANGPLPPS
Text: as §1

SIK = molecular target: T38, SIK (Homo sapiens, UniProt P57059); conditions: compound concentration 10 uM
T38 construct: purchased Ambit Biosciences (KINOMEscan)
Text: as §1

[2] = molecular target: T39, TYK2(JH1domain-catalytic) (Homo sapiens, UniProt P29597); conditions: compound concentration 10 uM
T39 construct: TYK2(JH1domain-catalytic); purchased Ambit Biosciences (KINOMEscan)
Text: as §1

ULK2 = molecular target: T40, ULK2 (Homo sapiens, UniProt Q8IYT8); conditions: compound concentration 10 uM, read-out: Percent Competition
T40 construct: purchased Ambit Biosciences (KINOMEscan)
Text: as §1

WEE1 = molecular target: T41, WEE1 (Homo sapiens, UniProt P30291); conditions: compound concentration 10 uM, read-out: Percent Competition
T41 construct: purchased Ambit Biosciences (KINOMEscan)
Text: as §1

SMILES: Fc1ccc(-c2c(-c3ccncc3)[nH]c3nccnc23)cc1 [RO1155697-000-005]
- inhibition at 10 µM (ABL1): < 50%
- inhibition at 10 µM (ABL1(F317I)): < 50%
- inhibition at 10 µM (ABL1(T315I)): < 50%
- inhibition at 10 µM (ALK): < 50%
- Percent Competition (ARK5): <50%
- inhibition at 10 µM (AURKB): < 50%
- Percent Competition (BMPR2): <50%
- inhibition at 10 µM (BRSK1): < 50%
- inhibition at 10 µM (CAMKK1): < 50%
- inhibition at 10 µM (CDKL2): < 50%
- inhibition at 10 µM (DCAMKL2): < 50%
- inhibition at 10 µM (DCAMKL3): < 50%
- inhibition at 10 µM (EPHA2): < 50%
- inhibition at 10 µM (FLT3): < 50%
- inhibition at 10 µM (MAP4K2): < 50%
- inhibition at 10 µM (MAP4K5): < 50%
- inhibition at 10 µM (MAPKAPK2): < 50%
- inhibition at 10 µM (MAPKAPK5): < 50%
- inhibition at 10 µM (MEK2): < 50%
- inhibition at 10 µM (MELK): < 50%
- inhibition at 10 µM (MKNK1): < 50%
- inhibition at 10 µM (MYLK): < 50%
- inhibition at 10 µM (MYLK2): < 50%
- inhibition at 10 µM (NEK1): < 50%
- inhibition at 10 µM (NEK2): < 50%
- inhibition at 10 µM (NEK6): < 50%
- inhibition at 10 µM (PAK3): < 50%
- inhibition at 10 µM (PDPK1): < 50%
- inhibition at 10 µM (PFTAIRE2): < 50%
- Percent Competition (PFTK1): <50%
- inhibition at 10 µM (PIK3C2B): < 50%
- inhibition at 10 µM (PIM3): < 50%
- inhibition at 10 µM (PLK3): < 50%
- Percent Competition (PRKR): <50%
- inhibition at 10 µM (RIOK1): < 50%
- inhibition at 10 µM (RIOK3): < 50%
- inhibition at 10 µM [1]: < 50%
- Percent Competition (SIK): <50%
- Percent Competition [2]: <50%
- inhibition at 10 µM (ULK2): < 50%
- inhibition at 10 µM (WEE1): < 50%
